Experimental data taken from patent publication US20230053540A1, “TREATMENT OF LIVER INJURY” (Massachusetts Institute of Technology, priority 2019, published 2023).

Tested on: hepatocytes
Experiment: Seq-Well scRNA-Seq of hepatocytes after APAP overdose (signature scores, DEG vs untreated)
Format: in vivo, mouse
[1] = time point A24 vs untreated (UT)

CC(=O)Nc1ccc(O)cc1 [APAP, acetaminophen]
Psme4 pct.1 (time point A24): 0.58 | Ptprf pct.1 (time point A24): 0.588 | Raf13 pct.1 (time point A24): 0.612 | Ranbp2 pct.1 (time point A24): 0.484 | Rarres2 pct.1 (time point A24): 0.83 | Rpl13 pct.1 (time point A24): 0.306 | Rplp1 pct.1 (time point A24): 0.597 | Rps9 pct.1 (time point A24): 0.519 | Rps15 pct.1 (time point A24): 0.379 | Sbno1 pct.1 (time point A24): 0.36 | Sc4mol pct.1 (time point A24): 0.5 | Sco2 pct.1 (time point A24): 0.346 | Sec31a pct.1 (time point A24): 0.462 | Selenbp1 pct.1 (time point A24): 0.563 | Sh3bgrl pct.1 (time point A24): 0.512 | Slc38a10 pct.1 (time point A24): 0.449 | Slc39a14 pct.1 (time point A24): 0.495 | Srebf1 pct.1 (time point A24): 0.439 | Srp72 pct.1 (time point A24): 0.597 | Srpr pct.1 (time point A24): 0.532 | Stat3 pct.1 (time point A24): 0.459 | Stt3b pct.1 (time point A24): 0.485 | Surf4 pct.1 (time point A24): 0.656 | Tmem243 pct.1 (time point A24): 0.407 | Tob1 pct.1 (time point A24): 0.565 | Trib1 pct.1 (time point A24): 0.455 | Trip12 pct.1 (time point A24): 0.504 | Txndc5 pct.1 (time point A24): 0.48 | Txnrd1 pct.1 (time point A24): 0.564 | Uggt1 pct.1 (time point A24): 0.385 | Uqcr11 pct.1 (time point A24): 0.769 | Vkorc1 pct.1 (time point A24): 0.38 | Xiap pct.1 (time point A24): 0.504 | Zbtb20 pct.1 (time point A24): 0.566 | Adck3 avg_logFC [1]: −0.2825 | Arhgap5 avg_logFC [1]: 0.2952 | Arhgef12 avg_logFC [1]: 0.3047 | Arl5a avg_logFC [1]: 0.2648 | Atp1a1 avg_logFC [1]: 0.27 | Atp5e avg_logFC [1]: −0.3136 | Atp5f1 avg_logFC [1]: −0.2872 | Atp6v1f avg_logFC [1]: −0.2529 | Atp11c avg_logFC [1]: 0.2605 | Atp13a3 avg_logFC [1]: 0.3037 | Azin1 avg_logFC [1]: 0.2701 | Bnip3 avg_logFC [1]: −0.2928 | Brd2 avg_logFC [1]: 0.2664 | Bzw1 avg_logFC [1]: 0.2841 | Cald1 avg_logFC [1]: 0.2589 | Caprin1 avg_logFC [1]: 0.2628 | Ces3b avg_logFC [1]: −0.2867 | Copb2 avg_logFC [1]: 0.2839 | Copz1 avg_logFC [1]: 0.2577 | Cox7b avg_logFC [1]: −0.2674 | Cpne3 avg_logFC [1]: 0.258 | Ctnnb1 avg_logFC [1]: 0.2957 | Cyp4a14 avg_logFC [1]: −0.3729 | Cyp27a1 avg_logFC [1]: −0.2516 | Ddost avg_logFC [1]: 0.2504 | Dennd5b avg_logFC [1]: 0.2935 | Deptor avg_logFC [1]: 0.2606 | Dnajb9 avg_logFC [1]: 0.2586 | Dnajb11 avg_logFC [1]: 0.3154 | Eci1 avg_logFC [1]: −0.2764 | Edem1 avg_logFC [1]: 0.2869 | Ehhadh avg_logFC [1]: −0.2505 | Eif4b avg_logFC [1]: 0.256 | Ell2 avg_logFC [1]: 0.2881 | Eprs avg_logFC [1]: 0.3013 | Erbb2ip avg_logFC [1]: 0.2797 | Erp44 avg_logFC [1]: 0.2795 | Esd avg_logFC [1]: −0.2538 | Fam120a avg_logFC [1]: 0.28 | Fasn avg_logFC [1]: 0.2914 | Fcgrt avg_logFC [1]: −0.2693 | Gch1 avg_logFC [1]: −0.2825 | Gm23935 avg_logFC [1]: 0.7213 | Gm24245 avg_logFC [1]: 0.4242 | Golga4 avg_logFC [1]: 0.2718 | Gpam avg_logFC [1]: 0.2504 | Grlf1 avg_logFC [1]: 0.295 | Gstm3 avg_logFC [1]: −0.3186 | H6pd avg_logFC [1]: 0.2614 | Id3 avg_logFC [1]: −0.3511 | Ide avg_logFC [1]: 0.2517 | Iqgap2 avg_logFC [1]: 0.2547 | Ireb2 avg_logFC [1]: 0.2657 | Jak1 avg_logFC [1]: 0.2541 | Lasp1 avg_logFC [1]: 0.253 | Lgr4 avg_logFC [1]: 0.269 | Lpin2 avg_logFC [1]: 0.2776 | Macf1 avg_logFC [1]: 0.2617 | Magt1 avg_logFC [1]: 0.2633 | Man2a1 avg_logFC [1]: 0.2833 | Mbnl1 avg_logFC [1]: 0.2502 | Met avg_logFC [1]: 0.2883 | Mt1 avg_logFC [1]: −0.3482 | Mtss1 avg_logFC [1]: 0.2876 | Nadk2 avg_logFC [1]: 0.2579 | Narf avg_logFC [1]: 0.2629 | Ndufa6 avg_logFC [1]: −0.3068 | Ndufb6 avg_logFC [1]: −0.3064 | Ndufc2 avg_logFC [1]: −0.308 | Nop10 avg_logFC [1]: −0.2649 | Nr1i3 avg_logFC [1]: −0.2821 | Nrp1 avg_logFC [1]: 0.3341 | Osbp19 avg_logFC [1]: 0.2788 | Osbpl1a avg_logFC [1]: 0.2728 | Ostc avg_logFC [1]: 0.2658 | Pik3c2a avg_logFC [1]: 0.2594 | Plin5 avg_logFC [1]: −0.2778 | Prdx4 avg_logFC [1]: −0.3074 | Prdx5 avg_logFC [1]: −0.2609 | Prkaa2 avg_logFC [1]: 0.2636 | Prox1 avg_logFC [1]: 0.2663 | Proz avg_logFC [1]: 0.2632 | Psme4 avg_logFC [1]: 0.2626 | Ptprf avg_logFC [1]: 0.3071 | Raf13 avg_logFC [1]: 0.2553 | Ranbp2 avg_logFC [1]: 0.2659 | Rarres2 avg_logFC [1]: −0.2666 | Rpl13 avg_logFC [1]: −0.2997 | Rplp1 avg_logFC [1]: −0.2866 | Rps9 avg_logFC [1]: −0.314 | Rps15 avg_logFC [1]: −0.3561 | Sbno1 avg_logFC [1]: 0.2505 | Sc4mol avg_logFC [1]: −0.2735 | Sco2 avg_logFC [1]: −0.2929 | Sec31a avg_logFC [1]: 0.263 | Selenbp1 avg_logFC [1]: −0.28 | Sh3bgrl avg_logFC [1]: 0.2513 | Slc38a10 avg_logFC [1]: 0.2855 | Slc39a14 avg_logFC [1]: 0.323 | Srebf1 avg_logFC [1]: 0.2762 | Srp72 avg_logFC [1]: 0.3107 | Srpr avg_logFC [1]: 0.3052 | Stat3 avg_logFC [1]: 0.2974 | Stt3b avg_logFC [1]: 0.3194 | Surf4 avg_logFC [1]: 0.2586 | Tmem243 avg_logFC [1]: −0.2656 | Tob1 avg_logFC [1]: 0.3129 | Trib1 avg_logFC [1]: 0.2875 | Trip12 avg_logFC [1]: 0.3283 | Txndc5 avg_logFC [1]: 0.2901 | Uggt1 avg_logFC [1]: 0.2845 | Uqcr11 avg_logFC [1]: −0.2632 | Vkorc1 avg_logFC [1]: −0.2974 | Xiap avg_logFC [1]: 0.2602 | Zbtb20 avg_logFC [1]: 0.3791 | pct.1 Acsl1 (time point A48A96): 0.977 | pct.1 Aldh3a2 (time point A48A96): 0.592 | pct.1 Atp1a1 (time point A48A96): 0.701 | pct.1 Atp5d (time point A48A96): 0.866 | pct.1 C6 (time point A48A96): 0.653 | pct.1 Ces1e (time point A48A96): 0.791 | pct.1 Ctsd (time point A48A96): 0.831 | pct.1 Cyp4a12a (time point A48A96): 0.509 | pct.1 Ech1 (time point A48A96): 0.951 | pct.1 F5 (time point A48A96): 0.881 | pct.1 F9 (time point A48A96): 0.836 | pct.1 F12 (time point A48A96): 0.922 | pct.1 Fcgrt (time point A48A96): 0.806 | pct.1 Fn1 (time point A48A96): 0.932 | pct.1 Ftl1 (time point A48A96): 0.438 | pct.1 Gabarapl1 (time point A48A96): 0.917 | pct.1 Gclm (time point A48A96): 0.893 | pct.1 Glul (time point A48A96): 0.257 | pct.1 Gm4076 (time point A48A96): 0.047 | pct.1 Gm20594 (time point A48A96): 0.222 | pct.1 Gsta2 (time point A48A96): 0.583 | pct.1 Hadha (time point A48A96): 0.895 | pct.1 Hal (time point A48A96): 0.824 | pct.1 Hgfac (time point A48A96): 0.682 | pct.1 Hsd17b4 (time point A48A96): 0.943 | pct.1 Ifitm3 (time point A48A96): 0.823 | pct.1 Inmt (time point A48A96): 0.935 | pct.1 Lpgat1 (time point A48A96): 0.747 | pct.1 Lpin1 (time point A48A96): 0.515 | pct.1 Ndufb2 (time point A48A96): 0.814 | pct.1 Park7 (time point A48A96): 0.902 | pct.1 Pck1 (time point A48A96): 0.998 | pct.1 Pipox (time point A48A96): 0.774 | pct.1 Ppp2r5a (time point A48A96): 0.803 | pct.1 Ptms (time point A48A96): 0.857 | pct.1 Rarres1 (time point A48A96): 0.327 | pct.1 Rpl32 (time point A48A96): 0.766 | pct.1 Rpl41 (time point A48A96): 0.304 | pct.1 Sardh (time point A48A96): 0.939 | pct.1 Sdhd (time point A48A96): 0.837 | pct.1 Sds (time point A48A96): 0.671 | pct.1 Sec61a1 (time point A48A96): 0.7 | pct.1 Serpina12 (time point A48A96): 0.38 | pct.1 Sfxn1 (time point A48A96): 0.702 | pct.1 Slc2a2 (time point A48A96): 0.716 | pct.1 Slc37a4 (time point A48A96): 0.717 | pct.1 Tmem106b (time point A48A96): 0.787 | pct.1 Ubb (time point A48A96): 0.465 | pct.1 Ubxn4 (time point A48A96): 0.802 | pct.1 Upb1 (time point A48A96): 0.895 | pct.1 Usmg5 (time point A48A96): 0.677 | pct.1 mmu-mir-6236 (time point A48A96): 0.859 | pct.1 mt-Atp6 (time point A48A96): 0.326
